Assay results as given in paper PMC4673829 (Nature Communications, 2015).
Like-named read-outs stand apart in the source and are kept apart here.

Tests used:
TAF3 PHD domain = molecular target: T1, TAF3 PHD domain (Homo sapiens, UniProt Q5VWG9); assay: ITC binding to TAF3 PHD domain; details: 5–7 independent experiments
T1 sequence (Q5VWG9 857-924): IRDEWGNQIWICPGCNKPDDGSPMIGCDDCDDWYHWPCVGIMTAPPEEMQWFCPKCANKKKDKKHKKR
Text: (§1) We use isothermal titration calorimetry (ITC) to obtain full thermodynamic descriptions for binding of H3K4me3, H3C4me3 and H3G4 peptides to five representative reader proteins that specifically recognize H3K4me3 (the PHD zinc fingers of JARID1A, BPTF, TAF3 and the tudor domains of the Royal family of SGF29 and JMJD2A) (Table 1 and Fig. 1b,c)[19][20][21][22][23]. The five reader pockets are different in the aromatic cage composition and architecture, which allows us to examine the effect of individual constitution of the aromatic cage on binding differences.
(§2) Reader proteins were prepared and purified following the previously reported procedure. Briefly, the reader domains of BPTF, JMJD2A, JARID1A, TAF3 and SGF29 were expressed in Escherichia coli Rosetta BL21 DE3 pLysS hosts, using Terrific Broth medium. The bacteria were cultured to OD600 ∼0.6 at 37 °C after which they were induced with 0.5 mM isopropyl-b-D-thiogalactoside overnight at 16 °C. Proteins were purified using Ni-NTA beads for 6xHis-tagged proteins or glutathione sepharose beads for GST tagged proteins, respectively. After purification, the 6xHis tag was cleaved from JMJD2A and SGF29 using TEV-protease and the GST tag was cleaved from TAF3 using thrombin. Protein were purified by size-exclusion chromatography using a Superdex 75 column (GE Healthcare). SGF29 was eluted in 25 mM Tris, 50 mM NaCl, 1 mM dithiothreitol at pH 7.5; JMJD2A and TAF3 were eluted in 50 mM Tris at pH 7.5; BPTF and JARID1A were eluted in 50 mM Tris, 20 mM NaCl at pH 7.5. All proteins were made filter sterile and stored at 4 °C until further use.
(§3) Concentrations of histone peptides were measured by ultraviolet spectroscopy at 205 nm, following the previously reported method. All histone peptides were titrated to the same batch of reader proteins. […] Heats of dilution for histone peptides were determined in control experiments, and were subtracted from the titration binding data before curve fitting. […] For each reader–histone system, 5–7 independent ITC experiments were carried out. […]

JARID1A PHD3 domain = molecular target: T2, JARID1A PHD3 domain (Homo sapiens, UniProt P29375); assay: ITC binding to JARID1A PHD3 domain
T2 construct: made in house; host or cells: Escherichia coli Rosetta BL21 DE3 pLysS
T2 sequence (P29375 1607-1661 limits assumed): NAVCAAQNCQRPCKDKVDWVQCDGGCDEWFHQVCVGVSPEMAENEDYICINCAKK
Text: as §1, §2, §3

BPTF PHD zinc finger = molecular target: T3, BPTF PHD zinc finger (Homo sapiens, UniProt Q12830); assay: ITC binding to BPTF PHD zinc finger; details: ITC (Auto-iTC200), one set of sites; 350–600 μM 10-mer peptide into 25–40 μM protein (eluted in 50 mM Tris, 20 mM NaCl, pH 7.5); 5–7 independent experiments; stoichiometry n=0.95–1.05
T3 construct: the PHD zinc fingers of JARID1A, BPTF, TAF3 and the tudor domains of the Royal family of SGF29 and JMJD2A; made in house; host or cells: Escherichia coli Rosetta BL21 DE3 pLysS
Text: as §1
(§4) Reader proteins were prepared and purified following the previously reported procedure. Briefly, the reader domains of BPTF, JMJD2A, JARID1A, TAF3 and SGF29 were expressed in Escherichia coli Rosetta BL21 DE3 pLysS hosts, using Terrific Broth medium. The bacteria were cultured to OD600 ∼0.6 at 37 °C after which they were induced with 0.5 mM isopropyl-b-D-thiogalactoside overnight at 16 °C. […]
as §3

[1] = molecular target: T4, SGF29 tandem tudor domain (Homo sapiens, UniProt Q96ES7); assay: ITC binding to SGF29 tandem tudor domain; details: ITC (Auto-iTC200), one set of sites; 350–600 μM 10-mer peptide into 25–40 μM protein (eluted in 25 mM Tris, 50 mM NaCl, 1 mM dithiothreitol, pH 7.5); 5–7 independent experiments; stoichiometry n=0.95–1.05
T4 construct: 6xHis (cleaved yes); made in house; host or cells: Escherichia coli Rosetta BL21 DE3 pLysS
T4 sequence (Q96ES7 115-293): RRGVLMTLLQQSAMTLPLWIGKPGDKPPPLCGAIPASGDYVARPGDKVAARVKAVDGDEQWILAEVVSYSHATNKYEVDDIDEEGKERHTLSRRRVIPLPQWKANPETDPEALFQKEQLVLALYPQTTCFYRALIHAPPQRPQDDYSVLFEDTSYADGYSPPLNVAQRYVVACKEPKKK
Text: as §1, §4, §3

JMJD2A tudor domain = molecular target: T5, JMJD2A tudor domain (Homo sapiens, UniProt O75164); assay: ITC binding to JMJD2A tudor domain; details: 5–7 independent experiments
T5 construct: the PHD zinc fingers of JARID1A, BPTF, TAF3 and the tudor domains of the Royal family of SGF29 and JMJD2A; 6xHis (cleaved yes); made in house; host or cells: Escherichia coli Rosetta BL21 DE3 pLysS
T5 sequence (O75164 897-1011 limits assumed): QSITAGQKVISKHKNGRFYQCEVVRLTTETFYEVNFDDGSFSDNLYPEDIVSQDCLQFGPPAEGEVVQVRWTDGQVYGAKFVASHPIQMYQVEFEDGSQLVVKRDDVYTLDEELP
Text: as §1, §4, §3

[2] = ITC (Auto-iTC200), one set of sites, 350–600 μM 10-mer peptide into 25–40 μM protein (eluted in 50 mM Tris, pH 7.5), stoichiometry n=0.95–1.05, read-out: Kd
[3] = ITC (Auto-iTC200), one set of sites, 350–600 μM 10-mer peptide into 25–40 μM protein (eluted in 50 mM Tris, 20 mM NaCl, pH 7.5), 5–7 independent experiments, stoichiometry n=0.95–1.05, read-out: Kd

Row | Kd (BPTF PHD zinc finger) [nM] | Kd (TAF3 PHD domain; [2]) [nM] | Kd [1] [nM] | Kd (JMJD2A tudor domain; ITC (Auto-iTC200), one set of sites, 350–600 μM 10-mer peptide into 25–40 μM protein (eluted in 50 mM Tris, pH 7.5), stoichiometry n=0.95–1.05) [µM] | Kd (JARID1A PHD3 domain; [3]) [nM] | Kd (JMJD2A tudor domain; ITC, 3 mM H3C4me3 into 200 μM JMJD2A) [µM] | SMILES | Kd (TAF3 PHD domain; ITC, 3 mM H3G4 into 200 μM TAF3) [nM] | Kd (JARID1A PHD3 domain) [nM]
1 |  |  |  |  |  |  | C[C@H](N)C(=O)N[C@@H](CCCNC(=N)N)C(=O)N[C@H](C(=O)NCC(=O)N[C@@H](CCC(N)=O)C(=O)N[C@H](C(=O)N[C@@H](C)C(=O)N[C@@H](CCCNC(=N)N)C(=O)N[C@@H](CCCCN)C(=O)N[C@@H](CO)C(=O)O)[C@@H](C)O)[C@@H](C)O [H3G4] | 36000 | 88000
2 | 490 | 24 | 1700 | 0.94 | 94 |  | C[C@H](N)C(=O)N[C@@H](CCCNC(=N)N)C(=O)N[C@H](C(=O)N[C@@H](CCCC[N+](C)(C)C)C(=O)N[C@@H](CCC(N)=O)C(=O)N[C@H](C(=O)N[C@@H](C)C(=O)N[C@@H](CCCNC(=N)N)C(=O)N[C@@H](CCCCN)C(=O)N[C@@H](CO)C(=O)O)[C@@H](C)O)[C@@H](C)O [H3K4me3] |  | 
3 | 760 | 790 | 1400 |  | 340 | 16 | C[C@H](N)C(=O)N[C@@H](CCCNC(=N)N)C(=O)N[C@H](C(=O)N[C@@H](CCCCC(C)(C)C)C(=O)N[C@@H](CCC(N)=O)C(=O)N[C@H](C(=O)N[C@@H](C)C(=O)N[C@@H](CCCNC(=N)N)C(=O)N[C@@H](CCCCN)C(=O)N[C@@H](CO)C(=O)O)[C@@H](C)O)[C@@H](C)O [H3C4me3] |  | 
